Several values for one entry are separate records, joined by “and”; a condition that tells them apart may be missing. Identical values can stand only once. Inconclusive results and toxic doses are left out. Rule for the calls: active = survival T/C of 150% or more; inactive = T/C below 125% in these data.
System: P388 leukemia ip, CD2F1 mice, survival T/C
Test: NCI In Vivo Anticancer Drug Screen. Data for tumor model P388 Leukemia (intraperitoneal) in CD2F1 (CDF1) mice
Details: endpoint: median survival time, higher = longer survival
Outline: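 Mice carrying the transplanted tumor received test compound or vehicle. Survival was recorded in each group, and the value is the treated-group measurement divided by that of the vehicle-treated control group.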

[1] = dose: 100.0 mg/kg/injection, schedule: Q04DX002 (ip), vehicle: saline with Tween-80
[2] = dose: 200.0 mg/kg/injection, schedule: Q04DX002 (ip), vehicle: saline with Tween-80
[3] = dose: 400.0 mg/kg/injection, schedule: Q04DX002 (ip), vehicle: saline with Tween-80
[4] = dose: 100.0 mg/kg/injection, schedule: Q04DX003 (ip), vehicle: saline with Tween-80
[5] = dose: 200.0 mg/kg/injection, schedule: Q04DX003 (ip), vehicle: saline with Tween-80
[6] = dose: 400.0 mg/kg/injection, schedule: Q04DX003 (ip), vehicle: saline with Tween-80
[7] = dose: 50.0 mg/kg/injection, schedule: Q01DX009 (ip), vehicle: Klucel (hydroxypropylcellulose) (HPC)
[8] = dose: 100.0 mg/kg/injection, schedule: Q01DX009 (ip), vehicle: Klucel (hydroxypropylcellulose) (HPC)
[9] = dose: 200.0 mg/kg/injection, schedule: Q01DX009 (ip), vehicle: Klucel (hydroxypropylcellulose) (HPC)
[10] = dose: 50.0 mg/kg/injection, schedule: Q01DX005 (ip), vehicle: Klucel (hydroxypropylcellulose) (HPC)
[11] = dose: 100.0 mg/kg/injection, schedule: Q01DX005 (ip), vehicle: Klucel (hydroxypropylcellulose) (HPC)
[12] = dose: 200.0 mg/kg/injection, schedule: Q01DX005 (ip), vehicle: Klucel (hydroxypropylcellulose) (HPC)
[13] = dose: 60.0 mg/kg/injection, schedule: Q01DX005 (ip), vehicle: saline with Tween-80
[14] = dose: 120.0 mg/kg/injection, schedule: Q01DX005 (ip), vehicle: saline with Tween-80
[15] = dose: 25.0 mg/kg/injection, schedule: Q01DX005 (ip), vehicle: saline with Tween-80
[16] = dose: 50.0 mg/kg/injection, schedule: Q01DX005 (ip), vehicle: saline with Tween-80
[17] = dose: 50.0 mg/kg/injection, schedule: Q01DX009 (ip), vehicle: saline
[18] = dose: 100.0 mg/kg/injection, schedule: Q01DX009 (ip), vehicle: saline
[19] = dose: 200.0 mg/kg/injection, schedule: Q01DX009 (ip), vehicle: saline
[20] = dose: 100.0 mg/kg/injection, schedule: Q01DX005 (ip), vehicle: saline with Tween-80
[21] = dose: 200.0 mg/kg/injection, schedule: Q01DX005 (ip), vehicle: saline with Tween-80
[22] = dose: 60.0 mg/kg/injection, schedule: Q01DX005 (ip), vehicle: Klucel (hydroxypropylcellulose) (HPC)
[23] = dose: 120.0 mg/kg/injection, schedule: Q01DX005 (ip), vehicle: Klucel (hydroxypropylcellulose) (HPC)
[24] = dose: 240.0 mg/kg/injection, schedule: Q01DX005 (ip), vehicle: Klucel (hydroxypropylcellulose) (HPC)

Measured: T/C

COc1ccc(SS(=O)c2ccccc2)cc1 (stereo not drawn)
inactive: [1] 105 % of control | [2] 111 % of control | [3] 108 % of control

COC(=O)C1C(O)CN2CCCC12C (stereo not drawn)
inactive: [4] 107 % of control | [5] 97 % of control | [6] 108 % of control

CN1C(=O)C2C3C=CC(C2C1=O)C1C2C(=O)N(C)C(=O)C2C31 (stereo not drawn)
inactive: dose: 25.0 mg/kg/injection, schedule: Q01DX009 (ip), vehicle: Klucel (hydroxypropylcellulose) (HPC) 100 % of control | [7] 108 % of control | [8] 111 % of control | [9] 104 % of control and 111 % of control

CC1(c2ccco2)NC(=O)NC1=O (stereo not drawn)
inactive: [4] 90 % of control | [5] 100 % of control | [6] 90 % of control

CCOC(=O)N1N=C(c2ccccc2)OC2(N3CCCC3)CCC(C(C)(C)C)CC12 (stereo not drawn)
inactive: [10] 89 % of control | [11] 96 % of control | [12] 96 % of control

O=C(c1ccccc1)c1c(-c2ccccc2)noc1-c1ccccc1
inactive: dose: 100.0 mg/kg/injection, schedule: Q04DX003 (ip), vehicle: saline 109 % of control | dose: 200.0 mg/kg/injection, schedule: Q04DX003 (ip), vehicle: saline 100 % of control | dose: 400.0 mg/kg/injection, schedule: Q04DX003 (ip), vehicle: saline 108 % of control

CC(C)(C)C1CC[N+](=C(O[B-](F)(F)F)c2ccccc2)CC1 (stereo not drawn)
inactive: [13] 100 % of control | [14] 103 % of control

NCCCNCCCNc1nc2nc(N)nc(N)c2nc1-c1ccc([N+](=O)[O-])cc1
inactive: dose: 6.25 mg/kg/injection, schedule: Q01DX005 (ip), vehicle: saline with Tween-80 99 % of control | dose: 12.5 mg/kg/injection, schedule: Q01DX005 (ip), vehicle: saline with Tween-80 101 % of control | [15] 105 % of control | [16] 97 % of control

Nc1ccc(C(=O)Nc2ccc(C(=O)Nc3ccc(/C=C/c4ccc(NC(=O)c5ccc(N)cc5)cc4S(=O)(=O)O)c(S(=O)(=O)O)c3)cc2)cc1
inactive: [17] 99 % of control | [18] 113 % of control | [19] 100 % of control

COc1ccc(S(=O)(=O)N/N=C/c2cc(=O)[nH]c(=O)[nH]2)cc1
inactive: [15] 100 % of control | [16] 101 % of control | [20] 105 % of control | [21] 118 % of control

O=C(Nc1ccc(Br)c2ccccc12)c1ccc2ccccc2c1O
inactive: [13] 91 % of control | [14] 92 % of control

Cc1nnc2sc3c(Cl)c4nn5c(C)nnc5sc4c(Cl)c3nn12
inactive: dose: 0.78 mg/kg/injection, schedule: Q01DX009 (ip), vehicle: saline with Tween-80 94 % of control | dose: 1.56 mg/kg/injection, schedule: Q01DX009 (ip), vehicle: saline with Tween-80 97 % of control | dose: 3.13 mg/kg/injection, schedule: Q01DX009 (ip), vehicle: saline with Tween-80 92 % of control

CC(O)c1ccc(C(C)O)cc1 (stereo not drawn)
inactive: [17] 91 % of control | [18] 86 % of control | [19] 96 % of control

CCCCc1c[nH]n(C(N)=NCCSCc2nc[nH]c2C)c1=O
inactive: [22] 94 % of control | [23] 98 % of control | [24] 93 % of control

COc1ccc2c(CC(=O)O)cc(=O)oc2c1
inactive: [13] 102 % of control | [14] 120 % of control | dose: 240.0 mg/kg/injection, schedule: Q01DX005 (ip), vehicle: saline with Tween-80 99 % of control

NP(=O)(Oc1c2occc2cc2ccc(=O)oc12)N(CCCl)CCCl (stereo not drawn)
inactive: [16] 111 % of control | [20] 99 % of control | [21] 114 % of control

c1ccc(Cn2ccnc2CSCCSCc2nccn2Cc2ccccc2)cc1
inactive: dose: 30.0 mg/kg/injection, schedule: Q01DX005 (ip), vehicle: Klucel (hydroxypropylcellulose) (HPC) 101 % of control | [22] 99 % of control and 90 % of control | [23] 99 % of control and 105 % of control | [24] 97 % of control

CC(=O)/C(=C\c1c(Cl)cccc1Cl)C(=O)CCN(C)C
inactive: dose: 7.5 mg/kg/injection, schedule: Q01DX005 (ip), vehicle: saline 120 % of control | dose: 15.0 mg/kg/injection, schedule: Q01DX005 (ip), vehicle: saline 117 % of control | dose: 30.0 mg/kg/injection, schedule: Q01DX005 (ip), vehicle: saline 117 % of control

O=C(CC[N+](=O)[O-])OCC1OC(O)C(OC(=O)CC[N+](=O)[O-])C(O)C1O (stereo not drawn)
inactive: dose: 12.5 mg/kg/injection, schedule: Q01DX005 (ip), vehicle: distilled water + Tween-80 100 % of control | dose: 18.75 mg/kg/injection, schedule: Q01DX001 (ip), vehicle: saline + alcohol 100 % of control | dose: 25.0 mg/kg/injection, schedule: Q01DX005 (ip), vehicle: distilled water + Tween-80 97 % of control | dose: 37.5 mg/kg/injection, schedule: Q01DX001 (ip), vehicle: saline + alcohol 101 % of control | dose: 50.0 mg/kg/injection, schedule: Q01DX005 (ip), vehicle: distilled water + Tween-80 100 % of control | dose: 75.0 mg/kg/injection, schedule: Q01DX001 (ip), vehicle: saline + alcohol 109 % of control | dose: 100.0 mg/kg/injection, schedule: Q01DX005 (ip), vehicle: distilled water + Tween-80 98 % of control | dose: 200.0 mg/kg/injection, schedule: Q01DX005 (ip), vehicle: distilled water + Tween-80 100 % of control

C[n+]1cccc2c1-c1ccccc1C2=O
inactive: dose: 25.0 mg/kg/injection, schedule: Q01DX005 (ip), vehicle: Klucel (hydroxypropylcellulose) (HPC) 101 % of control | [10] 115 % of control | [11] 101 % of control | [12] 91 % of control

O=C1C2CCc3cnn(-c4ccccc4)c3C2C(=O)N1c1ccccc1 (stereo not drawn)
inactive: [16] 101 % of control | [20] 99 % of control | [21] 94 % of control

Nc1ccc(CCCCc2ccc(Cl)c(S(=O)(=O)F)c2)c(Cl)c1
inactive: dose: 100.0 mg/kg/injection, schedule: Q01DX009 (ip), vehicle: saline with Tween-80 91 % of control | dose: 200.0 mg/kg/injection, schedule: Q01DX009 (ip), vehicle: saline with Tween-80 91 % of control

CCCCNC(=S)NC(c1ccc(OC)cc1)C(CC)c1ccc(OC)cc1 (stereo not drawn)
inactive: [1] 90 % of control | [2] 88 % of control | [3] 90 % of control

CCN(CC)CCCC(C)NC1CCCc2cc3c(cc21)C(=O)c1ccccc1C3=O (stereo not drawn)
inactive: dose: 6.25 mg/kg/injection, schedule: Q04DX003 (ip), vehicle: saline with Tween-80 98 % of control | dose: 12.5 mg/kg/injection, schedule: Q04DX003 (ip), vehicle: saline with Tween-80 94 % of control | dose: 25.0 mg/kg/injection, schedule: Q04DX003 (ip), vehicle: saline with Tween-80 90 % of control

Nc1nnc2cc(F)ccc2n1
inactive: [7] 104 % of control | [17] 123 % of control | [8] 108 % of control | [18] 108 % of control | [9] 98 % of control | [19] 113 % of control

Cc1ccc(S(=O)(=O)N2CC3CC(/C=C/c4ccnc5ccccc45)CC(C3)C2)cc1 (stereo not drawn)
inactive: dose: 25.0 mg/kg/injection, schedule: Q01DX001 (ip), vehicle: suspension in saline 96 % of control | dose: 50.0 mg/kg/injection, schedule: Q01DX001 (ip), vehicle: suspension in saline 102 % of control | dose: 100.0 mg/kg/injection, schedule: Q01DX001 (ip), vehicle: suspension in saline 95 % of control

O=C1CSC(=O)N1c1cccc(Cl)c1
inactive: dose: 1.56 mg/kg/injection, schedule: Q01DX009 (ip), vehicle: saline 99 % of control and 97 % of control | dose: 3.12 mg/kg/injection, schedule: Q01DX009 (ip), vehicle: saline 100 % of control and 103 % of control | dose: 6.25 mg/kg/injection, schedule: Q01DX009 (ip), vehicle: saline 90 % of control and 96 % of control | dose: 50.0 mg/kg/injection, schedule: Q01DX009 (ip), vehicle: saline with Tween-80 106 % of control | [17] 89 % of control

— PubChem BioAssay AID330 (DTP/NCI, 2004)
